Source: patent EP0182317A2, “Antineoplastic agent” (priority 1984, dated 1986)

Tests used:
[1] = test system: Hela S3 cells; experiment: Inhibition of proliferation of incubated Hela S3 cells; type: cell-based; details: cells counted 3 days after addition of sample
Procedure: Effect of inhibiting the proliferation of incubated Hela S3 cells:
Hela S3 cells were placed on a culture medium (NEM containing 10 % of calf serum in a plastic dish. After 2 days, an organoselenium compound was added thereto. After containing the culture for additional 3 days, the number of the cells was counted. The proliferation inhibition rate was calculated according to the following formula: Inhibition rate (%) = 100 x (B-A) / (B-C) in which A is the final number of the cells counted on the third day after addition of the test sample, B is the final number of the cells in a sample- free control and C is the number of the cells counted immediately after the addition of the test sample. The value of IC50 (50 % inhibitory concentration) was determined from a graph showing the relationship between the concentration of the sample and the inhibition rate.

[2] = test system: Ehrlich carcinoma; experiment: Antineoplastic effect on Ehrlich carcinoma in mice (survival, T/C percent); type: in vivo, male ICR mouse; details: in the abdomen once a day for 7 days
Procedure: Antineoplastic effect on Ehrlich carcinoma:
(§1) About 10^6/0.2 ml of Ehrlich carcinoma cells were placed in an abdomen of each male ICR mouse of 5 weeks old. On the next day the administration of the test sample in the abdomen was started. The test sample was given once a day for 7 days. For an untreated group, a physiological saline solution was given in the same manner as above. […] The T/C percent (T/C x 100) was determined from the average survival periods (days) of the treated group and control group. Further, 50 % lethal dose (LD50) was determined from the number of the mice which died of toxicity of the test samples administered.

[3] = test system: Salmonella typhimurium TA-98; experiment: Antimutagenic properties by Ames method with benzo[a]pyrene as mutagen; type: cell-based; details: for Number of colonies: B(a)P, S-9 mix; for inhibition rate: inhibition of the mutagenic effect of B(a)P
Procedure: The experiment was carried out by Ames method using Salmonella typhimurium TA-98 (hereinafter referred to as TA-98) as the test microorganism and benzo[a]pyrene (hereinafter referred to as B(a)P) as the mutagen.
0.1 ml of a solution containing […] of B(a)P and a suitable amount of a compound of the present invention was added to 0.5 ml of S-9 mix and 0.1 ml of a TA-98 suspension. The mixture was incubated at 37°C for 20 min. 2 ml of soft agar was added thereto, mixed well and then spread evenly on a glucose minimum agar medium plate. After the incubation at 37°C for 48 h, the number of colonies formed by the back mutation was counted.
The number of the colonies formed when neither B(a)P nor the compound of the present invention was used was employed as the background.
The antimutagenic properties was shown as the rate of inhibition of the mutagenic effect according to the following formula: [formula]

[4] = 50 % lethal dose from toxic deaths in the Ehrlich carcinoma experiment; type: in vivo, male ICR mouse; details: mice bearing Ehrlich carcinoma, in the abdomen once a day for 7 days; 43200 min
Procedure: as §1

O=[Se](Cl)Cl.c1ccncc1 [Selenium oxychloride·pyridine (1:1) complex]
IC50 [1]: 0.59 µg/mL

selenium oxychloride·pyridine complex [Compound 4]
Antineoplastic effect (T/C percent) ([2]; dose 2.0 mg/kg, observation period 30 days): 178.6% | Antineoplastic effect (T/C percent) ([2]; dose 2.0 mg/kg, observation period 60 days): 218% | Antineoplastic effect (T/C percent) ([2]; dose 4.0 mg/kg, observation period 30 days): 188.1% | Antineoplastic effect (T/C percent) ([2]; dose 4.0 mg/kg, observation period 60 days): 270% | Antineoplastic effect (T/C percent) ([2]; dose 8.0 mg/kg, observation period 30 days): 200.8% | Antineoplastic effect (T/C percent) ([2]; dose 8.0 mg/kg, observation period 60 days): 297% | Number of colonies ([3]; dose 0.5 µg/plate): 213 | inhibition rate ([3]; dose 0.5 µg/plate): 23.0% | Number of colonies ([3]; dose 1 µg/plate): 192 | inhibition rate ([3]; dose 1 µg/plate): 32.8% | Number of colonies ([3]; dose 5 µg/plate): 180 | inhibition rate ([3]; dose 5 µg/plate): 37.7% | Number of colonies ([3]; dose 10 µg/plate): 144 | inhibition rate ([3]; dose 10 µg/plate): 52.5% | Number of colonies ([3]; dose 50 µg/plate): 93 | inhibition rate ([3]; dose 50 µg/plate): 73.4% | Number of colonies ([3]; dose 100 µg/plate): 87 | inhibition rate ([3]; dose 100 µg/plate): 75.8% | Number of colonies ([3]; dose 500 µg/plate): 41 | inhibition rate ([3]; dose 500 µg/plate): 94.7% | LD50 [4]: 8 - 16 mg/kg/day x7
